A value given as a limit tells only on which side of the number the result lay.

These results are taken from patent US20110319392A1, “Thiazole Sulfonamide And Oxazole Sulfonamide Kinase Inhibitors” (priority 2009, published 2011).

Assay [1] relates to SK-MEL-28 tumor cells. Nature of the assay: Cell growth inhibition assay (CellTiter-Glo), SK-MEL-28. It is filed as cell-based, Human. The note with it: Homo sapiens, SK-MEL-28, 72 h; 3 days incubation. The method, boiled down:
(§1)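 Cells plated at 500 cells/well in their growth media, dosed next day with nine-step 1:3 compound dilutions (final DMSO 0.2%), then incubated 3 days at 37° C, 5% CO2. Total ATP read by CellTiter-Glo luminescence as a surrogate for cell number; IC50 interpolated from 4-parameter fit versus DMSO controls.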
For orientation: Cellular ATP, detected with luciferase, serves as a proxy for viable cell number.

Assay [2] concerns Colo205 tumor cells. Nature of the assay: Cell growth inhibition assay (CellTiter-Glo), Colo205. The class given is cell-based, Human. The settings on record: Homo sapiens, COLO 205, 72 h; 3 days incubation. The method, boiled down:
as §1

The target of assay [3] is B-Raf (Homo sapiens, UniProt P15056). Nature of the assay: B-Raf Accelerated MEK ATPase assay (BRAMA), Method A or B. The settings on record: Method B: final MEK 150 nM, single end point read. The class given is biochemical. The method, boiled down: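 Activated Raf plus non-phosphorylated MEK drives MEK-mediated ATP hydrolysis; ADP formation coupled via pyruvate kinase/lactate dehydrogenase to NADH oxidation. Method A read kinetically; Method B used 150 nM final MEK and a single end-point read.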

Assay [4] concerns the target T1, ErbB2 (Homo sapiens, UniProt P04626).
T1 construct: made in house; host or cells: baculovirus expression system
Nature of the assay: ErbB-2 substrate phosphorylation assay (HTRF). The class given is biochemical. The method, boiled down: (§2)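 Baculovirus-expressed EGFR (0.8 nM) or ErbB2 (10 nM) in enzyme mix, preincubated 1 h at 20 °C with compound (0.00027–47.6 μM final), then 90 min at 20 °C with substrate mix of 20 μM ATP, 0.8 uM biotinylated Peptide C, MnCl2, MOPS pH 7.5. Phosphotyrosine by HTRF; pIC50 reported.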
For orientation: In TR-FRET formats the signal depends on donor and acceptor labels being close together.

Assay [5] addresses T2, EGFR (Homo sapiens, UniProt P00533).
T2 construct: made in house; host or cells: baculovirus expression system
Nature of the assay: EGFR substrate phosphorylation assay (HTRF). The class given is biochemical. The method, boiled down: as §2

Sequence of B-Raf (P15056 whole entry): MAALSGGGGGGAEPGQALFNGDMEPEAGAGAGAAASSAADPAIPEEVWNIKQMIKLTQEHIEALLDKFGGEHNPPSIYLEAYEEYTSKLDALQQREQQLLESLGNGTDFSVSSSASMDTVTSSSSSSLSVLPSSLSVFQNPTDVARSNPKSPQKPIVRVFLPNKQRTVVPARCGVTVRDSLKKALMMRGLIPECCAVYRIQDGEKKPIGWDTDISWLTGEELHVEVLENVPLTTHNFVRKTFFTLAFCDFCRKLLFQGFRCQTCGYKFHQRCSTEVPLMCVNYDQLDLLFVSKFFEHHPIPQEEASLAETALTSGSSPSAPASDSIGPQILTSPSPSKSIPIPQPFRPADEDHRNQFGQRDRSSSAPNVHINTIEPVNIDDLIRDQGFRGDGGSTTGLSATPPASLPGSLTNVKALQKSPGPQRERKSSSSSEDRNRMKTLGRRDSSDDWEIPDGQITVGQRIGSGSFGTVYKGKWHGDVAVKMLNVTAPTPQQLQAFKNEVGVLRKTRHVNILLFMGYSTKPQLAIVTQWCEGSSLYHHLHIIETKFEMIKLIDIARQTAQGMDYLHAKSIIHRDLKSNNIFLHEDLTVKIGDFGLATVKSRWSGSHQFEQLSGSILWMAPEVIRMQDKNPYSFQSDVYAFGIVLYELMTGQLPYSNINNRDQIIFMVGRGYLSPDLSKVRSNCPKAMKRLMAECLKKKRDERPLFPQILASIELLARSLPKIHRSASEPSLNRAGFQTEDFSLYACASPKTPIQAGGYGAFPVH
T2 sequence (P00533 25-1210): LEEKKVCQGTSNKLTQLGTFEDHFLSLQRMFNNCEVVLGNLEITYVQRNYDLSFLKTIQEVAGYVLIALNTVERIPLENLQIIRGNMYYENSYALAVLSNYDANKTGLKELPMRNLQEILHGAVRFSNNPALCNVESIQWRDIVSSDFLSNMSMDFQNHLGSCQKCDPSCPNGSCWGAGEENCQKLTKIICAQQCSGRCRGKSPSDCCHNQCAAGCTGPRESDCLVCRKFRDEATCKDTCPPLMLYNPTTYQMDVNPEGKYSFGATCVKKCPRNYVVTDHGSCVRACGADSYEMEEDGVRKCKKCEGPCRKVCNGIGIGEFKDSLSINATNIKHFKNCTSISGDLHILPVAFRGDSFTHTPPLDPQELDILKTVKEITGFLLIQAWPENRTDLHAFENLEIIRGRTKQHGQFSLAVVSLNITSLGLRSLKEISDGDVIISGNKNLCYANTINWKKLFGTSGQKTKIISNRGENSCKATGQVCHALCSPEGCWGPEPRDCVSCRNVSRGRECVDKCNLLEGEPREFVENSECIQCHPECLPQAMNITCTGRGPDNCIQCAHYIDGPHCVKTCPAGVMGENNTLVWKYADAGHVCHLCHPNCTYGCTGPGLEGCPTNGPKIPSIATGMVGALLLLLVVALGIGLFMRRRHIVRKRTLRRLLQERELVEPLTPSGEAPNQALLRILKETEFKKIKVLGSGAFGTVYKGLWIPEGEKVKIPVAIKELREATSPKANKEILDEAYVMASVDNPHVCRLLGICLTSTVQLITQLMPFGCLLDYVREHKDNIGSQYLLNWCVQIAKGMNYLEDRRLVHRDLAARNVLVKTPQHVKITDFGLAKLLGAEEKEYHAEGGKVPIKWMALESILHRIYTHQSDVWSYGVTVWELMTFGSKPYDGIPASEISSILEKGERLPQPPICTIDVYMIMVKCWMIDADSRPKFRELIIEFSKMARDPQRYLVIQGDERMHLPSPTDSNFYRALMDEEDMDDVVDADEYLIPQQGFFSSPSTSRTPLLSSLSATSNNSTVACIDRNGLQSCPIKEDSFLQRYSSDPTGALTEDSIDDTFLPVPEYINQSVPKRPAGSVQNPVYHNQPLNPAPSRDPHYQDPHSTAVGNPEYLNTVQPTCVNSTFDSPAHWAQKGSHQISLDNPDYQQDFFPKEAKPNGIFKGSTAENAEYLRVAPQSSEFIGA
T1 sequence (P04626 23-1255): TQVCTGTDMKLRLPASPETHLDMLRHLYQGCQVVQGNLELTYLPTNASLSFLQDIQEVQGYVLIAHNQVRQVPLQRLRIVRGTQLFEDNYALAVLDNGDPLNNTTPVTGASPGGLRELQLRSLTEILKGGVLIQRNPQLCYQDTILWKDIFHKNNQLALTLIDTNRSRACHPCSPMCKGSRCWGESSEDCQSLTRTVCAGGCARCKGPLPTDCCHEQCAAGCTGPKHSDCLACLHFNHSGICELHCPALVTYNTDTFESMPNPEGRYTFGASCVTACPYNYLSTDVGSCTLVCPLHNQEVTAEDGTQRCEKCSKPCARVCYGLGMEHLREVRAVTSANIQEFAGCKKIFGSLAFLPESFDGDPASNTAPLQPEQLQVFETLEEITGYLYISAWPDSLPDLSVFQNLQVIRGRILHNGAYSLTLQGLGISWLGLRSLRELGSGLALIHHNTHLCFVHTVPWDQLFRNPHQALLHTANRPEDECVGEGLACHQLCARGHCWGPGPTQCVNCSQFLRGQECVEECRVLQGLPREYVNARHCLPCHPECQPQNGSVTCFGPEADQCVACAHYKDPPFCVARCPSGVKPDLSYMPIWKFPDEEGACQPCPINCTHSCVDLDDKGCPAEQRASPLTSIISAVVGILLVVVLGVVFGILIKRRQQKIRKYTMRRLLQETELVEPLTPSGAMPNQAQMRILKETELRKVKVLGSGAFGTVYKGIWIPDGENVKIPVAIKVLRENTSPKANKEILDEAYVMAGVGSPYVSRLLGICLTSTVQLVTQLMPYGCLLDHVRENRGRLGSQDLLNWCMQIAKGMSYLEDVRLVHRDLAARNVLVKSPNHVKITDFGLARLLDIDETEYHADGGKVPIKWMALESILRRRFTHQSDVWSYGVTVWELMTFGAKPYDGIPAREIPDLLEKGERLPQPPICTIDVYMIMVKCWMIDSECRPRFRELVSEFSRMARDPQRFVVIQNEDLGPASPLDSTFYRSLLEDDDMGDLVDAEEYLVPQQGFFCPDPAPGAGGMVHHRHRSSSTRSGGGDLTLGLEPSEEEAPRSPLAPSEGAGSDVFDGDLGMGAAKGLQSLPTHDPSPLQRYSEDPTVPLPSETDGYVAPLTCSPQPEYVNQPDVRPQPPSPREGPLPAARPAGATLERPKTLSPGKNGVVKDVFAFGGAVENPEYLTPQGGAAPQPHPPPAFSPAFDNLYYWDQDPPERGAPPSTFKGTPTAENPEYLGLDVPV

As usually defined, the IC50 is the concentration at which inhibition is half-maximal. Lower therefore signals higher potency. Regarding `COc1cc(N2CCN(CCS(C)(=O)=O)CC2)c(C)cc1Nc1nccc(-c2sc(C(C)C)nc2-c2cccc(NS(=O)(=O)c3c(F)cccc3F)c2F)n1` [Example 125], the IC50 in assay [1] was under 0.1 µM; in assay [2], 0.1 to 1 µM; in assay [3], under 0.1 µM; in assay [4] it was under 0.1 µM; in assay [5] it was under 0.1 µM.

Regarding `COc1cc(N2CCN(CCS(C)(=O)=O)CC2)c(C)cc1Nc1nccc(-c2sc(C(C)C)nc2-c2cccc(NS(=O)(=O)c3ccco3)c2)n1` [Example 55], the IC50 was 0.1 to 1 µM in assay [1]; under 0.1 µM in assay [2]; under 0.1 µM in assay [3]; under 0.1 µM in assay [4]; under 0.1 µM in assay [5].

Turning to `CC(C)c1nc(-c2cccc(NS(=O)(=O)c3c(F)cccc3F)c2)c(-c2ccnc(Nc3cnc(N4CCOCC4)cc3O)n2)s1` [Example 139], the IC50 is 0.1 to 1 µM in assay [1]; 0.1 to 1 µM in assay [2]; under 0.1 µM in assay [3]; over 1 µM in assay [4]; over 1 µM in assay [5].

In the case of `COc1cc(N2CCN(CCS(C)(=O)=O)CC2)c(C)cc1Nc1nccc(-c2oc(N3CCCC3)nc2-c2cccc(NS(=O)(=O)c3c(F)cccc3F)c2)n1` [Example 136], the IC50 in assay [1], in assay [2], in assay [3], in assay [4] and in assay [5] was 0.1 to 1 µM each time.

On to `COc1cc(N2CCC3(CC2)CCN(S(C)(=O)=O)CC3)c(C)cc1Nc1nccc(-c2sc(C(C)C)nc2-c2cccc(NS(=O)(=O)c3c(F)cccc3F)c2F)n1` [Example 160], for which the IC50 in assay [1] was 0.1 to 1 µM; in assay [2], under 0.1 µM; in assay [3] it was under 0.1 µM; in assay [4], 0.1 to 1 µM; in assay [5], 0.1 to 1 µM.

For the compound `COc1ccc(S(C)(=O)=O)cc1Nc1nccc(-c2sc(C(C)C)nc2-c2cccc(NS(=O)(=O)c3c(F)cccc3F)n2)n1` [Example 172], the 50% inhibitory concentration (IC50) in assay [1] is over 1 µM; in assay [2] it was over 1 µM; in assay [3], under 0.1 µM; in assay [4] it was under 0.1 µM; in assay [5], 0.1 to 1 µM.

Take `COc1cc(N2CCN(CCS(C)(=O)=O)CC2)c(C)cc1Nc1nccc(-c2sc(CC(C)C)nc2-c2cccc(NS(=O)(=O)c3c(F)cccc3F)c2)n1` [Example 161]: the IC50 is 0.1 to 1 µM in assay [1]; under 0.1 µM in assay [2]; 0.1 to 1 µM in assay [3]; under 0.1 µM in assay [4]; under 0.1 µM in assay [5].

For `Cc1[nH]c(=O)[nH]c(=O)c1S(=O)(=O)Nc1cccc(-c2nc(C(C)C)sc2-c2ccnc(Nc3ccc(N4CCOCC4)nc3)n2)c1` [Example 41], the IC50 was over 1 µM in assay [1]; over 1 µM in assay [2]; 0.1 to 1 µM in assay [3]; over 1 µM in assay [4]; over 1 µM in assay [5].

Take `COC(=O)c1ccc(S(=O)(=O)Nc2cccc(-c3nc(C(C)C)sc3-c3ccnc(Nc4ccc(N5CCOCC5)nc4)n3)c2)o1` [Example 110]: the IC50 was over 1 µM in assay [1]; 0.1 to 1 µM in assay [2]; under 0.1 µM in assay [3]; over 1 µM in assay [4]; over 1 µM in assay [5].

For the compound `COc1cc(N2CCN(CCS(C)(=O)=O)CC2)c(C)cc1Nc1nccc(-c2sc(C(C)C)nc2-c2cc(NS(=O)(=O)c3c(F)cccc3F)ccc2F)n1` [Example 144], the IC50 in assay [1] was 0.1 to 1 µM; in assay [2], 0.1 to 1 µM; in assay [3], 0.1 to 1 µM; in assay [4], under 0.1 µM; in assay [5], 0.1 to 1 µM.

For the compound `CS(=O)(=O)N1CCN(c2ccc(Nc3nccc(-c4oc(N5CCCC5)nc4-c4ccc(F)c(NS(=O)(=O)c5ccccc5F)c4)n3)cn2)CC1` [Example 60], the IC50 in assay [1] is over 1 µM; in assay [2] it was 0.1 to 1 µM; in assay [3], under 0.1 µM; in assay [4], over 1 µM; in assay [5], over 1 µM.
